Source: ChEMBL document CHEMBL1909046, “DrugMatrix in vitro pharmacology data”
pIC50, pKi: −log10 of the molar value.

Key:
Cytochrome P450 2A6 = target: T1, Cytochrome P450 2A6 (Homo sapiens, UniProt P11509); conditions: bti-tn-5b1-4; further: in other assays of this panel Not Active means under 50% inhibition at 10 µM
T1 sequence (P11509 whole entry): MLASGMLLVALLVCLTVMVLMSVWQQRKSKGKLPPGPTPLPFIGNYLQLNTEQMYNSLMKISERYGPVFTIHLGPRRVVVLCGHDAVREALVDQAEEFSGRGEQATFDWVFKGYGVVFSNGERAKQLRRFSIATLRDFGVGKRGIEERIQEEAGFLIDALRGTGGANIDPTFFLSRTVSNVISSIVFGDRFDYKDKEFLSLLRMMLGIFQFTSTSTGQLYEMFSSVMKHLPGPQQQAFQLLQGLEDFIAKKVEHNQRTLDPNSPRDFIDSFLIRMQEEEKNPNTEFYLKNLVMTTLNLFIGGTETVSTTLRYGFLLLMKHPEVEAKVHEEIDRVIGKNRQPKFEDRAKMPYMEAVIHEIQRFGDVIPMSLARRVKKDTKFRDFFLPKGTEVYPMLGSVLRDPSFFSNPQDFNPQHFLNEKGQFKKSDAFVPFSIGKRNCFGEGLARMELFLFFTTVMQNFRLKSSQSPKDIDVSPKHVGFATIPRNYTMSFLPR

[1] = DRUGMATRIX: Sodium/nucleoside co-transporter radioligand binding (ligand: nitrobenzylthioinosine); type: cell membranes, Cavia porcellus, Dunkin-Hartley, Cerebral cortex, Membrane; conditions: Not Active = under 50% inhibition at 10 µM
[2] = DRUGMATRIX: Calcium Channel Type L, Phenylalkylamine radioligand binding (ligand: [3H] (-)-Desmethoxyverapamil (D-888)); type: cell membranes, Rattus norvegicus, Wistar, Brain, Membrane; conditions: Not Active = under 50% inhibition at 10 µM
[3] = DRUGMATRIX: Nicotinic Acetylcholine radioligand binding (ligand: [125I] Epibatidine); type: cell membranes, Membrane; conditions: imr-32; Not Active = under 50% inhibition at 10 µM
[4] = DRUGMATRIX: Glutamate, AMPA radioligand binding (ligand: [3H] AMPA); type: cell membranes, Rattus norvegicus, Wistar, Cerebral cortex, Membrane; conditions: Not Active = under 50% inhibition at 10 µM
Cytochrome P450 1A2 = target: T2, Cytochrome P450 1A2 (Homo sapiens, UniProt P05177); further: in other assays of this panel Not Active means under 50% inhibition at 10 µM
T2 sequence (P05177 whole entry): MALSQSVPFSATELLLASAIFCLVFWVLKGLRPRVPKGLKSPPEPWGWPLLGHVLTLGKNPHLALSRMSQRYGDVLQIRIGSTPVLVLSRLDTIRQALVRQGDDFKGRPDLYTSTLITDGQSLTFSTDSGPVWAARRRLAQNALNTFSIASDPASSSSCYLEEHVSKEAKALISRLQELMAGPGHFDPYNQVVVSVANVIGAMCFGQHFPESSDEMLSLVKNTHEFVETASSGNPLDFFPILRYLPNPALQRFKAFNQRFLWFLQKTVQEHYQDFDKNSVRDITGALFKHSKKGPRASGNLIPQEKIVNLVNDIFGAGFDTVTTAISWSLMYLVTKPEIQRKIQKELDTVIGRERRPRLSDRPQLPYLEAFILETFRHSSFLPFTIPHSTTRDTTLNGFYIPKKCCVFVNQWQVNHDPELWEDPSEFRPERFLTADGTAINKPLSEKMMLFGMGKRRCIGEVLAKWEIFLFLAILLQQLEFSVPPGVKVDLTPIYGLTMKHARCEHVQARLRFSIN

[5] = target: T3, Alpha-1B adrenergic receptor (Rattus norvegicus, UniProt P15823); experiment: DRUGMATRIX: Alpha-1B adrenergic receptor radioligand binding (ligand: prazosin); type: cell membranes, Wistar, Liver, Membrane; conditions: Not Active = under 50% inhibition at 10 µM
T3 sequence (P15823 whole entry): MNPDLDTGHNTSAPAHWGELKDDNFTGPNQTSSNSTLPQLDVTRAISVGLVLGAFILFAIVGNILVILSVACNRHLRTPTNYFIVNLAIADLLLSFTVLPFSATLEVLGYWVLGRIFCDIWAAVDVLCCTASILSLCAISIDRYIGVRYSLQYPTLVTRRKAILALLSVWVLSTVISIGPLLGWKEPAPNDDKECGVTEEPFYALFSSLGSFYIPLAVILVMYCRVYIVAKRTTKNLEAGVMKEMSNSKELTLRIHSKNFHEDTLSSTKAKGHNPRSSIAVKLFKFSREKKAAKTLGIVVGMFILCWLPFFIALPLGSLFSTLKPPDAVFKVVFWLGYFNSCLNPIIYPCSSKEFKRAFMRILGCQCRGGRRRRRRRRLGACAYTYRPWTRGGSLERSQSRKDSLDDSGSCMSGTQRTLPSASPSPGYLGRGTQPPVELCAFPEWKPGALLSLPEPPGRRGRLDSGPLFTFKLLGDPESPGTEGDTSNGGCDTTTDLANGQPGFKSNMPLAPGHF

Cytochrome P450 2C19 = Cytochrome P450 2C19 (Homo sapiens, UniProt P33261); further: in other assays of this panel Not Active means under 50% inhibition at 10 µM
Sequence of Cytochrome P450 2C19 (P33261 whole entry): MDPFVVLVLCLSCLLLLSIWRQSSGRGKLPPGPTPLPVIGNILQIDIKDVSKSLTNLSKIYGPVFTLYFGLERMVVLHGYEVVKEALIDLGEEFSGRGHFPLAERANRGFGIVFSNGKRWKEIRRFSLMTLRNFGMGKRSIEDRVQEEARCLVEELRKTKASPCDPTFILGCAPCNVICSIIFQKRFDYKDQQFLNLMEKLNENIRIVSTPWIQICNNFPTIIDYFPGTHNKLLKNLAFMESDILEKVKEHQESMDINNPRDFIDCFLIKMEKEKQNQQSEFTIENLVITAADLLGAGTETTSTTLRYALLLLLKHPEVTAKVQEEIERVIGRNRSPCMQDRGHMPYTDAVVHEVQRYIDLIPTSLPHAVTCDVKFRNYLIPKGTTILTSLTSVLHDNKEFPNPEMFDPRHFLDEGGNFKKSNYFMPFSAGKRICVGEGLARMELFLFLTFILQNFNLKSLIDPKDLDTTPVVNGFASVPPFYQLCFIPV

Cytochrome P450 2D6 = Cytochrome P450 2D6 (Homo sapiens, UniProt P10635); further: in other assays of this panel Not Active means under 50% inhibition at 10 µM
Sequence of Cytochrome P450 2D6 (P10635 whole entry): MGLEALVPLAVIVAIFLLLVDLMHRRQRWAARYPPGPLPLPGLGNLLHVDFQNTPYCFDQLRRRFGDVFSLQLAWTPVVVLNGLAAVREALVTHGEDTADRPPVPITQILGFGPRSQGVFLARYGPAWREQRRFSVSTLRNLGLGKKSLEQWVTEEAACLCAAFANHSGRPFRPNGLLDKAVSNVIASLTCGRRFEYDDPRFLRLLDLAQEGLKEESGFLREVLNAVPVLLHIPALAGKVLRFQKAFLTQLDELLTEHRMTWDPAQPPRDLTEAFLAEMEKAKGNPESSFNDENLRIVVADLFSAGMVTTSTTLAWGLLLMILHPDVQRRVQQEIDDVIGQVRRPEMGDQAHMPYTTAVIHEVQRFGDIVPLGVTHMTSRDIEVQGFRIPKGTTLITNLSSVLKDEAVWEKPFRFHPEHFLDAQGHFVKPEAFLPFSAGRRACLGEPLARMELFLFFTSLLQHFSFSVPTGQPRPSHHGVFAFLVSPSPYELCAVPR

Row | SMILES | IC50 (Cytochrome P450 2A6) | Ki (Cytochrome P450 2A6) | IC50 [1] | Ki [1] | IC50 [2] | Ki [2] | IC50 [3] | Ki [3] | IC50 [4] | Ki [4] | pIC50 (Cytochrome P450 1A2) | IC50 [5] | pIC50 (Cytochrome P450 2C19) | pIC50 (Cytochrome P450 2D6) | pIC50 ([2]; read-out: IC50) | pKi ([2]; read-out: Ki) | pIC50 ([5]; read-out: IC50) | pKi ([5]; read-out: Ki)
1 | c1ccc2c(c1)cc1ccc3cccc4ccc2c1c34 | Not Active | Not Active | Not Active | Not Active | Not Active | Not Active | Not Active | Not Active | Not Active | Not Active | 7.40 | Not Active | – | – | – | – | – | –
2 | Cc1[nH]cnc1CN1CCc2c(c3ccccc3n2C)C1=O [ALOSETRON] | Not Active | Not Active | Not Active | Not Active | Not Active | Not Active | Not Active | Not Active | Not Active | Not Active | 6.22 | Not Active | – | – | – | – | – | –
3 | CC(=O)O[C@]1(C(C)=O)CC[C@H]2[C@@H]3C=C(Cl)C4=CC(=O)CC[C@]4(C)[C@H]3CC[C@@]21C [CHLORMADINONE ACETATE] | Not Active | Not Active | Not Active | Not Active | Not Active | Not Active | Not Active | Not Active | Not Active | Not Active | – | Not Active | 5.52 | – | – | – | – | –
4 | CCc1ccc(C(=O)C(C)CN2CCCCC2)cc1 (centres undefined) [EPERISONE] | Not Active | Not Active | Not Active | Not Active | Not Active | Not Active | Not Active | Not Active | Not Active | Not Active | – | Not Active | – | 5.31 | – | – | – | –
5 | O=C1OC2(c3ccc(O)cc3Oc3cc(O)ccc32)c2ccccc21 [FLUORESCEIN] | Not Active | Not Active | Not Active | Not Active | Not Active | Not Active | Not Active | Not Active | Not Active | Not Active | – | Not Active | 6.04 | – | – | – | – | –
6 | CNCCC=C1c2ccccc2CCc2ccccc21 [NORTRIPTYLINE] | Not Active | Not Active | Not Active | Not Active | – | – | Not Active | Not Active | Not Active | Not Active | – | – | 5.52 | 6.00 | 5.72 | 5.74 | 6.68 | 6.94
